Assays:
FosAKP = molecular target: T1, FosAKP (Klebsiella pneumoniae, UniProt A0A086IRG1); experiment: DTNB ([…] nm) activity assay; crystal structure of complex ([…] Å); type: biochemical; conditions: read-out: % inhibition at 5 mM
T1 construct: gene fosA

FosAPA = molecular target: T2, FosAPA (Pseudomonas aeruginosa, UniProt Q9I4K6); experiment: DTNB ([…] nm) assay of GSH conjugation, time course; type: biochemical; conditions: 10 mM Fos, 15 mM GSH, 0.1 M sodium phosphate pH 8, 100 mM KCl, 0.05 mM MnCl2, 25 °C
T2 construct: gene fosA
T2 sequence (Q9I4K6 whole entry): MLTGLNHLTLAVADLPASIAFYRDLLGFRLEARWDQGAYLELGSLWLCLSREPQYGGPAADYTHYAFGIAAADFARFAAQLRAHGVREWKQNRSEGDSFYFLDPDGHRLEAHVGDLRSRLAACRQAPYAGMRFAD

[1] = system: C[C@@H]1O[C@@H]1P(=O)(O)O; experiment: purified protein; type: biochemical, Klebsiella pneumoniae; conditions: free enzyme, 15 mM GSH, 0.1 M sodium phosphate pH 8, 100 mM KCl, 0.05 mM MnCl2, 25 °C, also bound in active site of crystal structure

T1 sequence (A0A086IRG1 entry or part of it): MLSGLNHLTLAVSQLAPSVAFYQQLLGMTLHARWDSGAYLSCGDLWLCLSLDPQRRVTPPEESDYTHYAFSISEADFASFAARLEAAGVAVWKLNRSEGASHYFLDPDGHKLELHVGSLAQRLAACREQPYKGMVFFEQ

O=C(O)C(O)C(O)C(=O)O (stereo not drawn) [Tar] was tested, and the inhibition at 5000 µM (FosAKP) was 20.7%.
In the case of C[C@@H]1O[C@@H]1P(=O)(O)O [Fosfomycin, (1R,2S)-epoxypropylphosphonic acid], the “DTNB (412 nm) assay of GSH conjugation, time course” value (FosAPA) is reported as “time course of Fos conjugation with GSH, catalyzed by FosAPA and FosAKP”.
In the case of FosAKP (Klebsiella pneumoniae), the Km [1] is reported as 2200 ± 300 µM.
